{"source": "the supplement of paper PMC9663587", "assay_in_all_cases": "GR value, 72 h; higher = faster growth (1 = untreated, <0 = killing);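 note: breast cancer and non-malignant breast epithelial lines, nine half-log doses, viable cells counted by Hoechst and LIVE/DEAD dye imaging versus time-zero plates and DMSO controls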", "key": {"[1]": {"compound": "CCN1CCN(Cc2ccc(Nc3ncc(F)c(-c4cc(F)c5nc(C)n(C(C)C)c5c4)n3)nc2)CC1"}, "Neratinib/HKI272": {"compound": "CCOc1cc2ncc(C#N)c(Nc3ccc(OCc4ccccn4)c(Cl)c3)c2cc1NC(=O)/C=C/CN(C)C [Neratinib/HKI272]"}, "[2]": {"compound": "CCc1cnn2c(NCc3ccc[n+]([O-])c3)cc(N3CCCC[C@H]3CCO)nc12"}, "LEE011/Ribociclib": {"compound": "CN(C)C(=O)c1cc2cnc(Nc3ccc(N4CCNCC4)cn3)nc2n1C1CCCC1 [LEE011/Ribociclib]"}, "THZ1": {"compound": "CN(C)C/C=C/C(=O)Nc1ccc(C(=O)Nc2cccc(Nc3ncc(Cl)c(-c4c[nH]c5ccccc45)n3)c2)cc1 [THZ1]"}, "Flavopiridol": {"compound": "CN1CC[C@H](c2c(O)cc(O)c3c(=O)cc(-c4ccccc4Cl)oc23)[C@H](O)C1 [Flavopiridol]"}}, "data": [{"cell line": "SUM1315", "values": [{"measurement": "GR value", "setting": "[1]; 0.001 µM", "result": 1.08, "unit": "GR"}, {"measurement": "GR value", "setting": "[1]; 0.003162 µM", "result": 0.8, "unit": "GR"}, {"measurement": "GR value", "setting": "[1]; 0.01 µM", "result": 0.704, "unit": "GR"}, {"measurement": "GR value", "setting": "[1]; 0.03162 µM", "result": 0.436, "unit": "GR"}, {"measurement": "GR value", "setting": "[1]; 0.1 µM", "result": 0.402, "unit": "GR"}, {"measurement": "GR value", "setting": "[1]; 0.3162 µM", "result": 0.259, "unit": "GR"}, {"measurement": "GR value", "setting": "[1]; 1 µM", "result": 0.177, "unit": "GR"}, {"measurement": "GR value", "setting": "[1]; 3.162 µM", "result": 0.109, "unit": "GR"}, {"measurement": "GR value", "setting": "[1]; 10 µM", "result": -0.164, "unit": "GR"}, {"measurement": "GR value", "setting": "Neratinib/HKI272; 0.0003162 µM", "result": 1.07, "unit": "GR"}, {"measurement": "GR value", "setting": "Neratinib/HKI272; 0.001 µM", "result": 0.992, "unit": "GR"}, {"measurement": "GR value", "setting": "Neratinib/HKI272; 0.003162 µM", "result": 1.01, "unit": "GR"}, {"measurement": "GR value", "setting": "Neratinib/HKI272; 0.01 µM", "result": 0.908, "unit": "GR"}, {"measurement": "GR value", "setting": "Neratinib/HKI272; 0.03162 µM", "result": 0.69, "unit": "GR"}, {"measurement": "GR value", "setting": "Neratinib/HKI272; 0.1 µM", "result": 0.517, "unit": "GR"}, {"measurement": "GR value", "setting": "Neratinib/HKI272; 0.3162 µM", "result": 0.309, "unit": "GR"}, {"measurement": "GR value", "setting": "Neratinib/HKI272; 1 µM", "result": 0.162, "unit": "GR"}, {"measurement": "GR value", "setting": "Neratinib/HKI272; 3.162 µM", "result": 0.101, "unit": "GR"}, {"measurement": "GR value", "setting": "[2]; 0.0001 µM", "result": 1.11, "unit": "GR"}, {"measurement": "GR value", "setting": "[2]; 0.0003162 µM", "result": 0.993, "unit": "GR"}, {"measurement": "GR value", "setting": "[2]; 0.001 µM", "result": 1.01, "unit": "GR"}, {"measurement": "GR value", "setting": "[2]; 0.003162 µM", "result": 0.916, "unit": "GR"}, {"measurement": "GR value", "setting": "[2]; 0.01 µM", "result": 0.617, "unit": "GR"}, {"measurement": "GR value", "setting": "[2]; 0.03162 µM", "result": -0.616, "unit": "GR"}, {"measurement": "GR value", "setting": "[2]; 0.1 µM", "result": -0.644, "unit": "GR"}, {"measurement": "GR value", "setting": "[2]; 0.3162 µM", "result": -0.639, "unit": "GR"}, {"measurement": "GR value", "setting": "[2]; 1 µM", "result": -0.664, "unit": "GR"}, {"measurement": "GR value", "setting": "LEE011/Ribociclib; 0.001 µM", "result": 0.841, "unit": "GR"}, {"measurement": "GR value", "setting": "LEE011/Ribociclib; 0.003162 µM", "result": 0.69, "unit": "GR"}, {"measurement": "GR value", "setting": "LEE011/Ribociclib; 0.01 µM", "result": 0.764, "unit": "GR"}, {"measurement": "GR value", "setting": "LEE011/Ribociclib; 0.03162 µM", "result": 0.763, "unit": "GR"}, {"measurement": "GR value", "setting": "LEE011/Ribociclib; 0.1 µM", "result": 0.671, "unit": "GR"}, {"measurement": "GR value", "setting": "LEE011/Ribociclib; 0.3162 µM", "result": 0.57, "unit": "GR"}, {"measurement": "GR value", "setting": "LEE011/Ribociclib; 1 µM", "result": 0.582, "unit": "GR"}, {"measurement": "GR value", "setting": "LEE011/Ribociclib; 3.162 µM", "result": 0.527, "unit": "GR"}, {"measurement": "GR value", "setting": "LEE011/Ribociclib; 10 µM", "result": 0.445, "unit": "GR"}, {"measurement": "GR value", "setting": "THZ1; 0.0001 µM", "result": 1.24, "unit": "GR"}, {"measurement": "GR value", "setting": "THZ1; 0.0003162 µM", "result": 1.06, "unit": "GR"}, {"measurement": "GR value", "setting": "THZ1; 0.001 µM", "result": 1.06, "unit": "GR"}, {"measurement": "GR value", "setting": "THZ1; 0.003162 µM", "result": 0.773, "unit": "GR"}, {"measurement": "GR value", "setting": "THZ1; 0.01 µM", "result": 0.999, "unit": "GR"}, {"measurement": "GR value", "setting": "THZ1; 0.03162 µM", "result": 0.982, "unit": "GR"}, {"measurement": "GR value", "setting": "THZ1; 0.1 µM", "result": 0.978, "unit": "GR"}, {"measurement": "GR value", "setting": "THZ1; 0.3162 µM", "result": 0.391, "unit": "GR"}, {"measurement": "GR value", "setting": "THZ1; 1 µM", "result": -0.906, "unit": "GR"}, {"measurement": "GR value", "setting": "Flavopiridol; 0.0001 µM", "result": 1.09, "unit": "GR"}, {"measurement": "GR value", "setting": "Flavopiridol; 0.0003162 µM", "result": 0.97, "unit": "GR"}, {"measurement": "GR value", "setting": "Flavopiridol; 0.001 µM", "result": 0.741, "unit": "GR"}, {"measurement": "GR value", "setting": "Flavopiridol; 0.003162 µM", "result": 0.795, "unit": "GR"}, {"measurement": "GR value", "setting": "Flavopiridol; 0.01 µM", "result": 0.876, "unit": "GR"}, {"measurement": "GR value", "setting": "Flavopiridol; 0.03162 µM", "result": 0.76, "unit": "GR"}, {"measurement": "GR value", "setting": "Flavopiridol; 0.1 µM", "result": 0.647, "unit": "GR"}, {"measurement": "GR value", "setting": "Flavopiridol; 0.3162 µM", "result": -0.451, "unit": "GR"}, {"measurement": "GR value", "setting": "Flavopiridol; 1 µM", "result": -0.887, "unit": "GR"}]}]}
